Read-outs that look alike come from different tables or passages of the source.

The target of one assay is T1, Gal-4C (Homo sapiens, UniProt P56470).
T1 construct: Gal-4C
T1 sequence (P56470 194-323 limits assumed): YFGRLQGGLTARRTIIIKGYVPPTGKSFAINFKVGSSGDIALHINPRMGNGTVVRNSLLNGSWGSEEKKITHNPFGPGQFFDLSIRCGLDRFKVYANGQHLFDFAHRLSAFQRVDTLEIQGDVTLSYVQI
Nature of the assay: Fluorescence anisotropy assay, galectin-4C. In kind it is binding. To be noted: about 1 μM galectin, 0.1 or 0.02 μM probe; NI = no inhibition at highest concentration tested; read-out: Calculated Kd, Gal-4C. The protocol:
(§1) FA was used to analyze interactions of probes and ligands with galectins in solution, as described before ([41][–][44]). A PheraStarFS plate reader, with software PHERAstar Mars version 2.10 R3 (BMG, Offenburg, Germany), was used, and FA of fluorescein-tagged saccharide probes was measured with excitation at 485 nm and emission at 520 nm.
(§2) The anisotropy (A) is given in units of mA, where the theoretical maximum is 400, and the value for free fluorescein typically 23. All conditions were measured in at least two duplicate wells.
(§3) In this study, the effect of inhibitors of the saccharide probe/galectin interaction was tested in two ways. In the first, a fixed low concentration of fluorescein-tagged probe (0.1 μM) and galectin were mixed with a range of concentrations of inhibitor. An optimal probe was chosen for each galectin to permit use of as low as possible concentration of galectin, while still achieving a sufficient rise in anisotropy for a reliable measuring range ([42][–][44]). […] With structurally defined inhibitors (pure synthetic galacto-oligosaccharides, small galactomannans, and reference ligands) the molecular mass, molar concentrations, and number of binding sites (in this case one binding site per ligand) were known and their dissociation constants (Kd) could therefore be directly calculated, using the data from the FA assay as described in Sörme et al. ([41]). […] Even if the molar concentration of the inhibitor is not known, the anisotropy value at a given condition permits calculation of the molar concentration of free galectin, as described below, and from this what fraction of the galectin is bound by a given mass per volume concentration of inhibitor. From this, the ratio of the molar concentration of the free inhibitor binding sites to their Kd value can be calculated, even if the FA assay cannot distinguish between the case when this is due to a few high affinity binding sites in the polysaccharide fraction or many of low affinity.

The target in a further assay is T2, galectin-2 (Homo sapiens, UniProt P05162).
T2 sequence (P05162 1-132): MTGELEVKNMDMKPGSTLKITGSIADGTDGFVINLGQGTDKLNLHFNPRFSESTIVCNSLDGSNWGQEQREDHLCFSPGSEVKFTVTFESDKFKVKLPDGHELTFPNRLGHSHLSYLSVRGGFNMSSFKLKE
The assay can be described thus: Fluorescence anisotropy assay, galectin-2. In kind it is binding. The following applies: about 1 μM galectin, 0.1 or 0.02 μM probe; NI = no inhibition at highest concentration tested; read-out: Calculated Kd, Gal-2. The protocol: as §1, §2
(§4) In this study, the effect of inhibitors of the saccharide probe/galectin interaction was tested in two ways. […] With structurally defined inhibitors (pure synthetic galacto-oligosaccharides, small galactomannans, and reference ligands) the molecular mass, molar concentrations, and number of binding sites (in this case one binding site per ligand) were known and their dissociation constants (Kd) could therefore be directly calculated, using the data from the FA assay as described in Sörme et al. ([41]). […] From this, the ratio of the molar concentration of the free inhibitor binding sites to their Kd value can be calculated, even if the FA assay cannot distinguish between the case when this is due to a few high affinity binding sites in the polysaccharide fraction or many of low affinity.

The target in the next assay is T3, Gal-9C (Homo sapiens, UniProt O00182).
T3 construct: Gal-9C
T3 sequence (O00182 227-355 limits assumed): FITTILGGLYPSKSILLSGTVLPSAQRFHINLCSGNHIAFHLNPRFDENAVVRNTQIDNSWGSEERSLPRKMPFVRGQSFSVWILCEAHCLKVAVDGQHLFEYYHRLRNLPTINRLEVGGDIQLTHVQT
The assay can be described thus: Fluorescence anisotropy assay, galectin-9C. In kind it is binding. To be noted: about 1 μM galectin, 0.1 or 0.02 μM probe; read-out: Calculated Kd, Gal-9C. The protocol: as §1, §2, §3

The target in a further assay is galectin-1 (Homo sapiens, UniProt P09382). The assay can be described thus: Fluorescence anisotropy assay, inhibition of probe binding to galectin-1. To be noted: about 1 μM galectin, 0.1 or 0.02 μM probe; 4 mM β-mercaptoethanol; NI = no inhibition at highest concentration tested; read-out: Calculated Kd, Gal-1. The protocol: as §1, §2, §3
Chain of galectin-1 (P09382 whole entry, species assumed): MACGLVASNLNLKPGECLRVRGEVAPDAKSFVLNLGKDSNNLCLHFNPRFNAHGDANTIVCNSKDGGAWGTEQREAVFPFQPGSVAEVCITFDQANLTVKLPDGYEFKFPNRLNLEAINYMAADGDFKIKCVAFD
The target of assay [1] is T4, galectin-3 (Homo sapiens, UniProt P17931). The assay can be described thus: Fluorescence anisotropy assay, galectin-3. In kind it is binding. The following applies: for Kd: about 1 μM galectin, 0.1 or 0.02 μM probe, NI = no inhibition at highest concentration tested, read-out: Calculated Kd, Gal-3. The protocol: as §1, §2, §3
T4 sequence (P17931 whole entry): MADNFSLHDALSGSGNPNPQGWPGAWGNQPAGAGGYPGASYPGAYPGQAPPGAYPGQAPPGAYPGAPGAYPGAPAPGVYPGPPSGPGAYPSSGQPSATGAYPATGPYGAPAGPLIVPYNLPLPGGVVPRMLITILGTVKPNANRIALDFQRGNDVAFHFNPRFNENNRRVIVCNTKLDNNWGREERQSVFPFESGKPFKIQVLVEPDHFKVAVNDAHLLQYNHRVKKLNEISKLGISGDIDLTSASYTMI
Another assay has as its target T5, galectin-8N (Homo sapiens, UniProt O00214).
T5 construct: the N-terminal CRD of galectin-8 (galectin-8N)
T5 sequence (O00214 19-152 limits assumed): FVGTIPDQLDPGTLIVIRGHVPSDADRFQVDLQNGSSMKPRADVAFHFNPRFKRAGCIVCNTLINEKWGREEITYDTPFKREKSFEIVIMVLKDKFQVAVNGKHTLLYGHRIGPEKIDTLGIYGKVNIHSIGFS
The assay can be described thus: Fluorescence anisotropy assay, galectin-8N. In kind it is binding. The following applies: about 1 μM galectin, 0.1 or 0.02 μM probe; read-out: Calculated Kd, Gal-8N. The protocol:
as §1, §2, §4

Another assay deals with T6, galectin-9N (Homo sapiens, UniProt O00182).
T6 construct: the N-terminal CRD of galectin-9 (galectin-9N)
T6 sequence (O00182 17-148 limits assumed): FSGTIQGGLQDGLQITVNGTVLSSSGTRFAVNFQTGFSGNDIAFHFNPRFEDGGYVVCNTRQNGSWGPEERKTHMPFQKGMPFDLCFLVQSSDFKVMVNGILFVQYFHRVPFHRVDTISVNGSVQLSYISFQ
The assay can be described thus: Fluorescence anisotropy assay, galectin-9N. In kind it is binding. The following applies: about 1 μM galectin, 0.1 or 0.02 μM probe; NI = no inhibition at highest concentration tested; read-out: Calculated Kd, Gal-9N. The protocol:
as §1, §2, §3

The target in assay [2] is T4, galectin-3. The following applies: given as example of low affinity; no reference given; read-out: Kd for galectin-3 canonical carbohydrate-binding site; cited from earlier work.
Assay [3] has as its system galectin-3 accumulation in JIMT-1 cells. Nature of the assay: Inhibition of GPN-induced galectin-3 accumulation around disrupted lysosomes. The following applies: 1 or 10 μM for 24 h, then 0.3 mM GPN 12 min, positive control. In kind it is cell-based, human.
Experimental: The cells were, after the GPN treatment, quickly washed with PBS and fixed with 3.7% formaldehyde for 15 min before blocking/permeabilization with 1% Tween® 20 and 1–5% BSA in PBS for at least 45 min. […] The cell nuclei were visualized by staining with the DNA-binding fluorescent agent bisbenzimide (Hoechst). The coverslips were finally mounted on glass slides using Mowiol® 4-88 and left at 8 °C overnight to solidify before examination. The samples were imaged with an LSM-510 confocal laser scanning microscope (Carl Zeiss Microscopy GmbH, Oberkochen, Germany) equipped with a Hamamatsu R6357 photomultiplier (Hamamatsu Photonics K.K., Hamamatsu, Japan).
For assay [4], the target named is T4, galectin-3. Nature of the assay: Galectin-3-induced hemagglutination of hen erythrocytes in V-shaped microplates. In kind it is cell-based. To be noted: for Estimated MIC, inhibition of galectin-3-induced hemagglutination, V-plate: MIC given as concentration interval. The protocol: Hemagglutination by galectin-3 was investigated in two assays, hemagglutination in V-shaped microplates (96 wells) and hemagglutination in gel cards described by Nowak et al. ([47]) and Lapierre et al. ([48]), respectively. Briefly, fresh hen blood in Alsever's solution was washed with 0.15 M NaCl, whereupon a 4% erythrocyte solution (by volume in PBS) was prepared and incubated with 1 mg/ml trypsin at 37 °C for 1 h. The cells were then washed with 0.15 M NaCl. The erythrocytes were diluted and preserved as a 10% solution in ID-CellStab solution. For the hemagglutination in V-shaped microplates, 1 volume of erythrocyte suspension in PBS (final concentration 0.6%), 1 volume of galectin solution, 1 volume of 0.15 M NaCl with or without the galectin inhibitor, and 1 volume of 1% bovine serum albumin (BSA) in 0.15 M NaCl were added to each well of the microplate. The plate was then shaken vigorously for 90 min at room temperature and then left standing still for at least 90 min before observing the hemagglutination status in each well. […] Each mixture was then transferred to individual gel card wells, whereupon the cards were centrifuged for 10 min at 85 × g in an ID-Centrifuge (DiaMed GmbH) and thereafter photographed and analyzed for hemagglutination.

For a further assay, the target named is T7, Gal-4N (Homo sapiens, UniProt P56470).
T7 construct: Gal-4N
T7 sequence (P56470 19-150 limits assumed): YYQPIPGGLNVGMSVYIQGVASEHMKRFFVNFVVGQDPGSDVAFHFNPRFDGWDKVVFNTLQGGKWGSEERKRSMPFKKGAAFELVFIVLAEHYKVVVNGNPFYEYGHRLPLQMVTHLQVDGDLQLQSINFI
Nature of the assay: Fluorescence anisotropy assay, galectin-4N. In kind it is binding. The following applies: about 1 μM galectin, 0.1 or 0.02 μM probe; NI = no inhibition at highest concentration tested; read-out: Calculated Kd, Gal-4N. The protocol: as §1, §2, §4

The target in a further assay is Gal-3 R186S (Homo sapiens, UniProt P17931, R186S). Nature of the assay: Fluorescence anisotropy assay, galectin-3 R186S mutant. In kind it is binding. To be noted: about 1 μM galectin, 0.1 or 0.02 μM probe; read-out: Calculated Kd, Gal-3 R186S. The protocol:
as §1, §2, §4

The next assay has as its target T8, galectin-1 wild type (UniProt P09382 1-135).
T8 construct: galectin-1, wild type; also called Gal-1; galectin-1 WT; source: called purified galectins in the discussion
The assay can be described thus: fluorescence polarisation; fluorescence anisotropy competition in solution; galectin-1 WT 0.5 uM, tdga saccharide probe 0.1 uM, increasing concentrations of ASF in the presence of the peptide Anginex, with or without beta-mercaptoethanol. The following applies: both partners purified. Background: In fluorescence polarisation assays a small probe gives low polarisation when free and higher when bound to something large.

Chain of Gal-3 R186S (P17931 whole entry R186S): as the sequence (P17931 whole entry) above, with R186S counted along it
T8 sequence (P09382 whole entry): as the sequence (P09382 whole entry, species assumed) above

Take `OC[C@H]1O[C@H](OC[C@H]2O[C@@H](O[C@H]3[C@H](O)[C@H](O)[C@H](O[C@H]4[C@H](O)[C@H](O)[C@H](O[C@H]5[C@H](O)[C@H](O)C(O)O[C@@H]5CO)O[C@@H]4CO)O[C@@H]3CO[C@H]3O[C@H](CO)[C@H](O)[C@H](O)[C@H]3O)[C@@H](O)[C@@H](O)[C@@H]2O[C@@H]2O[C@H](CO)[C@@H](O)[C@H](O)[C@@H]2O)[C@H](O)[C@@H](O)[C@H]1O` (stereo partly drawn) [6^3,6^4-α-Galactosyl-mannopentaose, 6^3,6^4-α-D-galactosyl-mannopentaose]: the Kd at Gal-4C is over 10000 µM; on galectin-2, 8300 µM; on Gal-9C, 2000 µM; at galectin-1 it was 4300 µM; at galectin-3 [1], 1500 µM; at galectin-8N, 2500 µM. Further, the dissociation constant (Kd) at galectin-9N is 980 µM.
Consider `O=C[C@H](O)[C@@H](O)[C@@H](O)[C@H](O)CO` [Gal, galactose], for which the Kd on galectin-3 [2] is about 5000 µM.
Turning to `OC[C@H]1O[C@@H](S[C@@H]2O[C@H](CO)[C@H](O)[C@H](n3cc(-c4cccc(F)c4)nn3)[C@H]2O)[C@H](O)[C@@H](n2cc(-c3cccc(F)c3)nn2)[C@H]1O` [33DFTG, 3,3′-Dideoxy-3,3′-bis-[4-(3-fluorophenyl)-1H-1,2,3-triazol-1-yl]-1,1′-sulfanediyl-di-β-D-galactopyranoside], in [3], the “inhibition of GPN-induced galectin-3 accumulation” value is “inhibit the galectin-3 accumulation”. Also, the “Estimated MIC, inhibition of galectin-3-induced hemagglutination, V-plate” value at galectin-3 [4] (1 μM galectin-3) is 0.25 to 0.74 µM; at galectin-3 [4] (5 μM galectin-3), 2.22 to 6.67 µM. The “slope of MIC versus galectin-3 concentration, hemagglutination” value on galectin-3 [4] (V-shaped microtiter plates, Fig. 4) is “around 1”. Also, the “slope of MIC versus galectin-3 concentration, FA assay” value at galectin-3 [1] (MIC = inhibitor concentration bringing bound probe to 50%, Fig. 4) was “around 1”.
Consider `CO[C@@H]1O[C@H](CO)[C@@H](O[C@@H]2O[C@H](CO)[C@H](O)[C@H](O)[C@H]2O)[C@H](O)[C@H]1O` [Methyl β-Lac, reference compound], for which the Kd on Gal-4C was 2900 µM; at Gal-4N, 2600 µM; at Gal-9C it was 190 µM; at galectin-1 it was 170 µM; on galectin-3 [1], 110 µM; on Gal-3 R186S, 290 µM.
Take `CO[C@@H]1O[C@H](CO)[C@@H](O[C@@H]2O[C@H](CO)[C@H](O)[C@H](O)[C@H]2O)[C@H](O)[C@H]1NC(C)=O` [Methyl β-LacNAc, reference compound]: the Kd at galectin-1 is 84 µM; at galectin-3 [1] it was 52 µM; on Gal-3 R186S, 1200 µM.
Consider `OC[C@H]1O[C@H](OC[C@H]2OC(O)[C@@H](O)[C@@H](O)[C@@H]2O[C@@H]2O[C@H](CO)[C@@H](O[C@@H]3O[C@H](CO)[C@@H](O)[C@H](O)[C@@H]3O)[C@H](O)[C@@H]2O)[C@H](O)[C@@H](O)[C@H]1O` (stereo partly drawn) [6^1-α-Galactosyl-mannotriose, 6^1-α-D-galactosyl-mannotriose], for which the equilibrium dissociation constant (Kd) on Gal-4C was over 10000 µM; on Gal-4N, over 10000 µM; on galectin-2, over 10000 µM; on galectin-3 [1] it was 3600 µM; on galectin-8N it was 7400 µM; at galectin-9N, 2400 µM.

B1: asialofetuin (natural protein, UniProt P12763 19-359, looked up)
chain: IPLDPVAGYKEPACDDPDTEQAALAAVDYINKHLPRGYKHTLNQIDSVKVWPRRPTGEVYDIEIDTLETTCHVLDPTPLANCSVRQQTQHAVEGDCDIHVLKQDGQFSVLFTKCDSSPDSAEDVRKLCPDCPLLAPLNDSRVVHAVEVALATFNAESNGSYLQLVEISRAQFVPLPVSVSVEFAVAATDCIAKEVVDPTKCNLLAEKQYGFCKGSVIQKALGGEDVRVTCTLFQTQPVIPQPQPDGAEAEAPSAVPDAAGPTPSAAGPPVASVVVGPSVVAVPLPLHRAHYDLRHTFSGVASVESSSGEAFHVGKTPIVGQPSIPGGPVRLCPGRIRYFKI
notes: asialofetuin (ASF), a glycoprotein; Desialylated fetuin; also called ASF
As for B1, in the assay with galectin-1 wild type, the “fold potentiation by Anginex of the inhibition of galectin-1/probe binding by ASF” value is about 500 fold.

The term Kd denotes the constant that tells how readily two partners part at equilibrium.

The record behind these values is publication PMC4933242, “Low or No Inhibitory Potency of the Canonical Galectin Carbohydrate-binding Site by Pectins and Galactomannans*” (The Journal of Biological Chemistry, 2016).
